# Data published in PubChem BioAssay (NCI).
#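 Values below derive from 48-hour exposures of cells grown in 96-well plates, with endpoints linearly interpolated between the two concentrations bracketing the appropriate inhibition level. Here, GI50 denotes the concentration required for 50% inhibition of growth. TGI marks complete inhibition of growth.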
# Key:
# Assay in all cases: NCI tumour cell line growth inhibition, 48 h
# [1] = tested on: SK-MEL-28 melanoma
# [2] = tested on: RXF 393 renal
# [3] = tested on: SR leukemia
# [4] = tested on: CCRF-CEM leukemia
# [5] = tested on: SN12C renal
# [6] = tested on: LOX IMVI melanoma
# [7] = tested on: SNB-75 CNS
# [8] = tested on: T-47D breast
# [9] = tested on: SF-268 CNS
# [10] = tested on: A549 NSCLC
# [11] = tested on: OVCAR-8 ovarian
# [12] = tested on: SNB-19 CNS
# [13] = tested on: U251 CNS
# [14] = tested on: NCI-H23 lung
# [15] = tested on: MDA-MB-231 breast
# [16] = tested on: BT-549 breast
# [17] = tested on: SK-MEL-2 melanoma
# [18] = tested on: MCF7 breast
# [19] = tested on: TK-10 renal
# [20] = tested on: A498 renal
# [21] = tested on: 786-0 renal
# [22] = tested on: MALME-3M melanoma
# [23] = tested on: UACC-257 melanoma
# [24] = tested on: M14 melanoma
# [25] = tested on: EKVX NSCLC
# [26] = tested on: SW-620 colon
# [27] = tested on: OVCAR-3 ovarian
# [28] = tested on: IGROV1 ovarian
# [29] = tested on: HCT-15 colon
# [30] = tested on: NCI/ADR-RES ovarian
# [31] = tested on: HCC-2998 colon
# [32] = tested on: HOP-92 NSCLC
# [33] = tested on: SF-539 CNS
# [34] = tested on: UACC-62 melanoma
# [35] = tested on: NCI-H460 lung
# [36] = tested on: ACHN renal
# [37] = tested on: HS 578T breast
# [38] = tested on: K-562 leukemia
# [39] = tested on: NCI-H226 lung
# [40] = tested on: MDA-MB-435
# [41] = tested on: HT29 colon
# [42] = tested on: HL-60(TB) leukemia
# [43] = tested on: NCI-H522 lung
# [44] = tested on: DU-145 prostate
# [45] = tested on: MOLT-4 leukemia
# [46] = tested on: RPMI-8226 leukemia
# [47] = tested on: HOP-62 NSCLC
# [48] = tested on: COLO 205 colon
# [49] = tested on: SK-OV-3 ovarian
# [50] = tested on: SK-MEL-5 melanoma
# [51] = tested on: CAKI-1 renal
# [52] = tested on: OVCAR-5 ovarian
# [53] = tested on: PC-3 prostate
# [54] = tested on: HCT-116 colon
# [55] = tested on: KM12 colon
# [56] = tested on: UO-31 renal
# [57] = tested on: SF-295 CNS
# [58] = tested on: OVCAR-4 ovarian
smiles,measurement,setting,value
Cc1nn(CCO)c(C)c1N=[N+]([O-])c1c(C)nn(CCO)c1C,GI50,[1],2.84 µM
same,TGI,[1],7.19 µM
same,GI50,[2],1.74 µM
same,TGI,[2],3.73 µM
same,GI50,[3],1.8 µM
same,TGI,[3],6.86 µM
same,GI50,[4],3.53 µM
same,TGI,[4],33.5 µM
same,GI50,[5],6.3 µM
same,TGI,[5],23 µM
same,GI50,[6],3 µM
same,TGI,[6],7.69 µM
same,GI50,[7],13.1 µM
same,TGI,[7],25.9 µM
same,GI50,[8],1.7 µM
same,TGI,[8],4.51 µM
same,GI50,[9],15.6 µM
same,TGI,[9],31.2 µM
same,GI50,[10],14.8 µM
same,TGI,[10],36.2 µM
same,GI50,[11],2.19 µM
same,TGI,[11],4.54 µM
same,GI50,[12],16.6 µM
same,TGI,[12],32.1 µM
same,GI50,[13],7.42 µM
same,TGI,[13],20.6 µM
same,GI50,[14],4.95 µM
same,TGI,[14],10.6 µM
same,GI50,[15],13.5 µM
same,TGI,[15],28.8 µM
same,GI50,[16],2.13 µM
same,TGI,[16],6.48 µM
same,GI50,[17],5.79 µM
same,TGI,[17],40.9 µM
same,GI50,[18],2.64 µM
same,TGI,[18],8.36 µM
same,GI50,[19],1.64 µM
same,TGI,[19],3.43 µM
same,GI50,[20],15.9 µM
same,TGI,[20],29.8 µM
same,GI50,[21],10.1 µM
same,TGI,[21],41.5 µM
same,GI50,[22],0.723 µM
same,TGI,[22],2.4 µM
same,GI50,[23],1.69 µM
same,TGI,[23],3.5 µM
same,GI50,[24],1.88 µM
same,TGI,[24],> 19.7 µM
same,GI50,[25],5.62 µM
same,TGI,[25],20.6 µM
same,GI50,[26],1.45 µM
same,TGI,[26],3.09 µM
same,GI50,[27],1.92 µM
same,TGI,[27],3.65 µM
same,GI50,[28],4.8 µM
same,TGI,[28],21.8 µM
same,GI50,[29],2.4 µM
same,TGI,[29],6.5 µM
same,GI50,[30],11.8 µM
same,TGI,[30],39 µM
same,GI50,[31],13.7 µM
same,TGI,[31],27.2 µM
same,GI50,[32],1.83 µM
same,TGI,[32],7.19 µM
same,GI50,[33],2.13 µM
same,TGI,[33],5.51 µM
same,GI50,[34],8.48 µM
same,TGI,[34],22.2 µM
same,GI50,[35],17.8 µM
same,TGI,[35],37.8 µM
same,GI50,[36],1.36 µM
same,TGI,[36],2.91 µM
same,GI50,[37],17.6 µM
same,TGI,[37],53.1 µM
same,GI50,[38],2.19 µM
same,TGI,[38],7.13 µM
same,GI50,[39],16.1 µM
same,TGI,[39],37 µM
same,GI50,[40],1.59 µM
same,TGI,[40],3.53 µM
same,GI50,[41],3.59 µM
same,TGI,[41],13.7 µM
same,GI50,[42],2.5 µM
same,TGI,[42],9.3 µM
same,GI50,[43],1.03 µM
same,TGI,[43],2.88 µM
same,GI50,[44],2.92 µM
same,TGI,[44],7.88 µM
same,GI50,[45],8.47 µM
same,TGI,[45],33.3 µM
same,GI50,[46],3.64 µM
same,TGI,[46],14.8 µM
same,GI50,[47],20.4 µM
same,TGI,[47],> 57.9 µM
same,GI50,[48],0.296 µM
same,TGI,[48],0.802 µM
same,GI50,[49],16.3 µM
same,TGI,[49],30.5 µM
same,GI50,[50],11 µM
same,TGI,[50],23.3 µM
same,GI50,[51],1.51 µM
same,TGI,[51],3.33 µM
same,GI50,[52],11.3 µM
same,TGI,[52],24.2 µM
same,GI50,[53],4.99 µM
same,TGI,[53],20.9 µM
same,GI50,[54],2.12 µM
same,GI50,[55],12.6 µM
same,TGI,[55],26 µM
same,GI50,[56],0.754 µM
same,TGI,[56],2.15 µM
same,GI50,[57],15.3 µM
same,TGI,[57],30 µM
same,GI50,[58],5.88 µM
same,TGI,[58],15.8 µM
